Values after ≈ are worked out from the molar mass of the structure shown. Where a name gives a salt, the structure may show the parent alone. Read-outs that look alike come from different tables or passages of the source.
Experiments:
[1] = biological target: alanine racemase enzyme from M. tuberculosis (Mycobacterium tuberculosis, UniProt P9WQA9, DEL103-104); assay type: biochemical
[2] = biological target: T1, alanine racemase enzyme from S. aureus (Staphylococcus aureus, UniProt P63479); assay: biochemical; details: for inhibition at 2500 µM: read-out: In % (percent inhibition of alanine racemase)
T1 sequence (P63479 1-382): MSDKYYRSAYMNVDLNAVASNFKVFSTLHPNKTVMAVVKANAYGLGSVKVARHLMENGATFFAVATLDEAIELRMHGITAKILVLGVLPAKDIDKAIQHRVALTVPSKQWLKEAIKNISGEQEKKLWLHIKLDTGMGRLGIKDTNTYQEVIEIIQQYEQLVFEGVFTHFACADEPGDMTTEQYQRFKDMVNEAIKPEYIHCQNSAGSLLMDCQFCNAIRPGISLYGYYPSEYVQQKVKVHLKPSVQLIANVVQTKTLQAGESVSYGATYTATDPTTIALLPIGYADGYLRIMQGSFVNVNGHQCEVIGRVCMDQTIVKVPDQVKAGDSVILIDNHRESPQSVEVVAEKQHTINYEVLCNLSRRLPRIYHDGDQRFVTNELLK

[3] = biological target: alanine racemase enzyme from P. aeruginosa (Pseudomonas aeruginosa, UniProt Q9HTQ2, A178S/N326M/S138R/S262R); assay: biochemical; details: for inhibition at 2500 µM: read-out: In % (percent inhibition of alanine racemase)
[4] = biological target: alanine racemase enzyme from E. Coli (Escherichia coli, UniProt P0A6B4); assay: biochemical; details: for inhibition at 2500 µM: read-out: In % (percent inhibition of alanine racemase)
S. aureus = assay: microbe, parasite or virus in culture; assay type: cell-based
M. tuberculosis [5] = assay type: cell-based
M. tuberculosis [6] = assay: microbe, parasite or virus in culture; assay type: cell-based
E. Coli = assay: microbe, parasite or virus in culture; assay type: cell-based
[7] = S. aureus ALR, % Inhibition at 2.5 mM
[8] = P. aeruginosa ALR, % Inhibition at 2.5 mM
[9] = P. aeruginosa ALR, read-out: Ki
[10] = E. Coli ALR, % Inhibition at 2.5 mM
[11] = Staphylococcus aureus, read-out: MIC
[12] = TB Assay of Hydroxamate Candidates, DMSO control 7, Water control 8
[13] = Mycobacterium tuberculosis, MGIT Assay, read-out: MIC
[14] = Escherichia coli, read-out: MIC

Chain of alanine racemase enzyme from P. aeruginosa (Q9HTQ2 whole entry S138R/A178S/S262R/N326M): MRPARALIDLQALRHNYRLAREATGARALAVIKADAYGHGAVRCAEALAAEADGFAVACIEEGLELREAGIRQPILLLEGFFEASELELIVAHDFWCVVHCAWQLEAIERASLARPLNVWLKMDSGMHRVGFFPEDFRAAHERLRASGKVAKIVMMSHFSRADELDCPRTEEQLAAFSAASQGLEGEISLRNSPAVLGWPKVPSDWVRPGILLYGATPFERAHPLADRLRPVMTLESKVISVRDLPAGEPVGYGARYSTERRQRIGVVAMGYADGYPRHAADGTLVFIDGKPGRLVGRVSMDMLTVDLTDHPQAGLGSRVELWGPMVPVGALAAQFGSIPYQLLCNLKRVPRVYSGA
Chain of alanine racemase enzyme from M. tuberculosis (P9WQA9 whole entry, looked up, stated change not applied): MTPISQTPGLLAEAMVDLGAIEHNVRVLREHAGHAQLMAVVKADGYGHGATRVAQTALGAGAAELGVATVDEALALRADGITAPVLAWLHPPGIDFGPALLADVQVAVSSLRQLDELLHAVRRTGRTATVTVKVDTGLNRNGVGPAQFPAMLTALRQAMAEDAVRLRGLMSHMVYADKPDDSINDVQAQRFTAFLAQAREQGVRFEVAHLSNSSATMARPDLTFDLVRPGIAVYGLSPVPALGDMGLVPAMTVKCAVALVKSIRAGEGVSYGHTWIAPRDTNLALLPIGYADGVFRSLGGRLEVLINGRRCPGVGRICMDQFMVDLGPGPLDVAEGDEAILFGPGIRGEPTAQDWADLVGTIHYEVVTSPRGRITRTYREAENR
Chain of alanine racemase enzyme from E. Coli (P0A6B4 whole entry): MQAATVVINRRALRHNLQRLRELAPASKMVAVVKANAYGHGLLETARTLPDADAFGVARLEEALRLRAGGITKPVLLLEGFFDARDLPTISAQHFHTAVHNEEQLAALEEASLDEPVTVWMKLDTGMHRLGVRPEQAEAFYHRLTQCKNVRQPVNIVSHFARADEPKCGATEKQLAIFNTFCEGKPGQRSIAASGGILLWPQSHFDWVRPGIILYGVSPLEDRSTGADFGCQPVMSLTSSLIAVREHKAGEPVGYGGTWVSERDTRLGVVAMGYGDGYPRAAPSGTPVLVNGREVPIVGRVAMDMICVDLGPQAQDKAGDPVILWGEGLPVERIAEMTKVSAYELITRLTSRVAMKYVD

Row | Molecule | % In in TB-ALR-assay [1] | In % (percent inhibition of alanine racemase) [1] | inhibition at 2500 µM [2, 7] | Ki ([2]; S. aureus ALR, read-out: Ki) | inhibition at 2500 µM [3, 8] | Ki [3, 9] | inhibition at 2500 µM [4, 10] | Ki ([4]; E. Coli ALR, read-out: Ki) | MIC (S. aureus; [11]) | Days of Detection (M. tuberculosis [5]; [12]) | MIC (M. tuberculosis [6]; [13]) | MIC (E. Coli; [14]) | In % (percent inhibition of alanine racemase) [3, 8] | MIC (S. aureus) | MIC (E. Coli) | other results
1 | N[C@@H]1CON=C1O [D-cycloserine, reference compound] | 96% | 93% | 94% | 10 µM | 95% | 10 µM | 93% | 10 µM | 0.2 mM (≈ 20.4 µg/mL) | >40 days | < 12.5 µg/mL |  |  |  |  | 
2 | NC(=O)OCC(N)C(=O)NO (centres unmarked) [H2NCH(CH2OCONH2)C(O)NILIOH] |  | 97 ± 5% | 93 ± 4% | 56 µM | 94 ± 5% | 30 µM | 96 ± 8% | 8 µM | > 5 mM |  |  | > 5 mM |  |  |  | 
3 | C[C@@H](N)C(=O)NO [Hcl•H2NCH(CH3)C(O)NHOH, D-Alanine Hydroxamic Acid Hydrochloride] |  |  |  |  |  |  |  |  |  |  |  |  |  |  |  | Ki ([2]; Ki): 2680 µM; inhibition at 2500 µM [2]: 33 ± 6%; Ki ([3]; Ki): 1010 µM; inhibition at 2500 µM [3]: 29 ± 6%; Ki ([4]; Ki): 5200 µM; inhibition at 2500 µM [4]: 35 ± 7%; MIC (S. aureus; Staphylococcus aureus): > 5 mM; MIC (E. Coli; Escherichia coli): > 5 mM
4 | N,O-Methylglycine Hydroxamic Acid Trifluoroacetic Acid [TFA•H2NCH2C(O)N(CH3)OCH3] | 66% | 66 ± 4% |  | 590 µM |  | 633 µM |  | 875 µM |  |  |  |  | 68 ± 5% | >5 mM | >5 mM | Ki [1]: 644 µM; In % (percent inhibition of alanine racemase) [2, 7]: 66 ± 3%; In % (percent inhibition of alanine racemase) [4, 10]: 49 ± 2%; Days of Detection (M. tuberculosis [5]): 9 days; MIC (M. tuberculosis [6]): >200 µg/mL
5 | NC(CO)C(=O)NO (centres unmarked) [H2NCH(CH2OH)C(O)NHOH] | 33% | 33 ± 8% | 19 ± 8% | 7200 µM | 28 ± 5% | 5100 µM | 0% |  | > 5 mM | 21.5 days | 100 µg/mL (≈ 833 µM) | > 5 mM |  |  |  | 
6 | NCC(=O)NO [TFA•H2NCH2G(O)NHOH, glycine hydroxamic trifluoracetic acid] |  | 104 ± 4% | 99 ± 3% | 23 µM |  | 20 µM | 94 ± 4% | 78 µM |  |  |  |  | 112 ± 7% | >5 mM | >5 mM | 
7 | NC(=O)C(=O)NO [H2NC(O)C(O)NHOH, N-Hydroxyoxalamide] | 93% | 93 ± 8% | 97% | 17 µM | 99 ± 4% | 16 µM | 97 ± 4% | 52 µM | > 5 mM | 32 days | 50 µg/mL (≈ 480 µM) | > 5 mM |  |  |  | 
8 | CC(N)C(=O)NO (centres unmarked) [HzNGH(~Ha)G(O)NHOH] |  | 48 ± 9% | 57 ± 4% | 810 µM | 66 ± 3% | 656 µM | 58 ± 2% | 756 µM | > 5 mM |  |  | > 5 mM |  |  |  | 
9 | Cl.NCC(=O)NO [HCl•H2NCH2C(O)NHOH, Glycine Hydroxamic Acid Hydrochloride] | 100% | 105 ± 6% |  |  |  |  |  |  |  |  |  |  |  | >5 mM |  | Ki ([2]; Ki): 217 µM; inhibition at 2500 µM [2]: 95 ± 1%; Ki ([3]; Ki): 201 µM; inhibition at 2500 µM [3]: 114 ± 14%; Ki ([4]; Ki): 268 µM; inhibition at 2500 µM [4]: 88 ± 4%; MIC (E. Coli; Escherichia coli): > 5 mM; Days of Detection (M. tuberculosis [5]): 16.5 days; MIC (M. tuberculosis [6]; Mycobacterium tuberculosis): 200 µg/mL
10 | N-Benzylglycine Hydroxamic Acid [PhCH2NHCH2C(O)NHOH] | 88% | 88 ± 3% |  | 1980 µM |  | 1240 µM |  | 1840 µM |  | 18.5 days |  |  | 39 ± 9% | >5 mM | >5 mM | Ki [1]: 519 µM; In % (percent inhibition of alanine racemase) [2, 7]: 53 ± 13%; In % (percent inhibition of alanine racemase) [4, 10]: 0.58 ± 3%; MIC (M. tuberculosis [6]; MGIT Assay): 50 µg/mL
11 | C[C@H](N)C(=O)NO.Cl [HCl•H2NCH(CH3)C(O)NHOH*, L-Alanine Hydroxamic Acid Hydrochloride] |  |  |  |  |  |  |  |  |  |  |  |  |  |  |  | Ki ([2]; Ki): 1300 µM; inhibition at 2500 µM [2]: 32 ± 8%; Ki ([3]; Ki): 1060 µM; inhibition at 2500 µM [3]: 33 ± 2%; Ki ([4]; Ki): 2780 µM; inhibition at 2500 µM [4]: 39 ± 8%; MIC (S. aureus; Staphylococcus aureus): > 5 mM; MIC (E. Coli; Escherichia coli): > 5 mM; melting point: 178 to 180 °C
12 | CONC(=O)CN.O=C(O)C(F)(F)F [TFA•H2NCH2C(O)NHOCH3, O-Methylglycine Hydroxamic Acid Trifluoroacetic Acid] | 66% | 66% | 47% | 1850 µM | 55% | 1510 µM | 67% | 1340 µM | > 5 mM | >40 days | 50 µg/mL | > 5 mM |  |  |  | 
13 | NCC(=O)NO [H2NCH2C(O)NHOH, glycine hydroxamic acid] | 100% | 100 ± 1% |  | 90 µM |  | 65 µM |  | 39 µM |  | >40 days | 50 µg/mL (≈ 555 µM) |  | 94 ± 1% | >0.5 mM | >5 mM | In % (percent inhibition of alanine racemase) [2, 7]: 91 ± 3%; In % (percent inhibition of alanine racemase) [4, 10]: 90 ± 5%
14 | NCC(=O)NO [H2NOH2G(O)NHOH] |  | 100 ± 2% |  | 34 µM |  | 33 µM |  | 75 µM |  |  |  |  | 90 ± 2% | >5 mM | >5 mM | In % (percent inhibition of alanine racemase) [2, 7]: 92 ± 3%; In % (percent inhibition of alanine racemase) [4, 10]: 90 ± 4%

Source: patent publication US7662856B2, “Compositions having antimycrobial activity including a hydroxamate or a hydroxamate and a hydroxlyamine” (The University of Houston System, priority 2003, dated 2010)
